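Assay format: 96-well plates, 48-hour exposure. The concentration for 50% growth inhibition is given as GI50. TGI marks complete inhibition of growth.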
Columns and labels:
Test in all cases: DTP human tumour cell line panel, 48 h
[1] = test system: SF-295 CNS
[2] = test system: K-562 leukemia
[3] = test system: SF-268 CNS
[4] = test system: RPMI-8226 leukemia
[5] = test system: OVCAR-3 ovarian
[6] = test system: HL-60(TB) leukemia
[7] = test system: OVCAR-8 ovarian
[8] = test system: NCI-H226 lung
[9] = test system: KM12 colon
[10] = test system: MDA-MB-435

SMILES | TGI [1] [µM] | TGI [2] [µM] | TGI [3] [µM] | TGI [4] [µM] | TGI [5] [µM] | TGI [6] [µM] | TGI [7] [µM] | TGI [8] [µM] | TGI [9] [µM] | GI50 [1] [µM] | GI50 [2] [µM] | GI50 [3] [µM] | GI50 [10] [µM] | TGI [10] [µM] | GI50 [4] [µM] | GI50 [5] [µM] | GI50 [9] [µM] | GI50 [7] [µM] | GI50 [8] [µM]
CC(=O)N(N=O)c1ccc(N(N=O)C(C)=O)cc1 | > 100 | > 100 | > 100 | > 100 | > 100 | > 100 | > 100 | > 100 |  |  |  |  |  |  |  |  |  |  | 
NCCCNCc1c2ccccc2c(CNCCCN)c2ccccc12 | 56.2 | 32.5 | 20.2 |  | 98.5 | 39.3 | 33.9 |  | 43.9 |  |  |  |  |  |  |  |  |  | 
C/C(=N\NC(=O)c1ccccc1O)c1c(O)cc(C)oc1=O | > 100 | > 100 | > 100 | > 100 | > 100 | > 100 | > 100 | > 100 | > 100 |  |  |  |  |  |  |  |  |  | 
COc1nc(NC2OC(COC(C)=O)C(OC(C)=O)C(OC(C)=O)C2OC(C)=O)c(N=C(C)C(C)=O)c(=O)n1C (configuration not stated) | > 100 | > 100 |  | > 100 | > 100 | > 100 | > 100 | > 100 | > 100 |  |  |  |  |  |  |  |  |  | 
O=C(N/C(=C\c1cccc([N+](=O)[O-])c1)c1nc2c3c(ccc2[nH]1)C(=O)c1ccccc1C3=O)c1ccccc1 |  |  | > 100 | > 100 | > 100 |  | > 100 | > 100 | > 100 |  |  |  |  |  |  |  |  |  | 
COc1cccc(C2SC(C)C(=O)N2NC(=O)C(O)c2ccccc2)c1 (configuration not stated) | > 100 | > 100 | > 100 | > 100 | > 100 |  | > 100 | > 100 | > 100 | > 100 | > 100 | > 100 | > 100 | > 100 | > 100 | > 100 | > 100 | > 100 | > 100
C=CCN=C1NC(=O)C(CC(=O)Nc2cccc(Cl)c2)S1 (configuration not stated) | > 100 | > 100 | > 100 | > 100 | > 100 | > 100 | > 100 | > 100 | > 100 |  |  |  |  |  |  |  |  |  | 
Cc1ccc(NC(=O)C(=O)C2C(=O)NC(=O)NC2=O)c(C)c1 | > 100 | > 100 | > 100 | > 100 | > 100 | > 100 | > 100 | 37.8 | > 100 |  |  |  |  |  |  |  |  |  | 
CCCCSC1CCSc2c1ccc1ccccc21 (configuration not stated) | > 100 | > 100 |  | > 100 |  | > 100 | > 100 |  | > 100 |  |  |  |  |  |  |  |  |  | 
CN1CCN(c2ccncc2S(=O)(=O)N2CCN(C)CC2)CC1 | > 100 | > 100 | > 100 | > 100 | > 100 |  | > 100 | > 100 | > 100 |  |  |  |  | > 100 |  |  |  |  | 
CSc1ccc(Cc2cc(C(C)(C)C)cc(C(C)(C)C)c2O)cc1 | 31.6 | 26.6 | 29.7 | 20.8 |  | 25.1 | 30.7 |  | 23.4 |  |  |  |  |  |  |  |  |  | 
CCCC(=O)Oc1ccc(/C=N/NC(N)=S)nc1 | > 100 | > 100 | > 100 | > 100 | > 100 | > 100 | > 100 | > 100 | > 100 |  |  |  |  |  |  |  |  |  | 
Cc1cc2[nH]c(=O)c3c4ncccc4cn3c2cc1C | 3.84 | > 100 | > 100 | 7.61 | 4.33 |  | > 100 | > 100 | > 100 | 1.85 | 2.54 | 3.44 |  |  | 2.66 | 2.02 | 3.17 | 2.89 | 6.04
OCC1CC2C=CCC(C2)C1 (configuration not stated) | > 100 | > 100 | > 100 | > 100 | > 100 | > 100 | > 100 | > 100 | > 100 |  |  |  |  |  |  |  |  |  | 
C=C1C2CC(OC(C)=O)C3(C)C(c4ccoc4)OC(=O)[C@@H](O)[C@]13OC1C[C@H](OC(C)=O)C(C)(C)[C@H](C(O)C(=O)OC)[C@]12C (some centres not stated) | > 100 | > 100 |  | > 100 | > 100 | > 100 | > 100 | > 100 | > 100 |  |  |  |  |  |  |  |  |  | 
Cc1cc(C)c([I+]c2c(C)cc(C)cc2C)c(C)c1 | 2.18 | 1.43 | 2.23 |  | 1.62 |  | 1.09 | 1.92 |  | 0.591 | 0.319 | 0.615 | 0.327 | 1.24 |  | 0.379 |  | 0.286 | 0.505

Source: PubChem BioAssay (NCI)
